Test results as given in patent publication US8637484B2, “Modulation of growth hormone receptor expression and insulin-like growth factor expression” (Antisense Therapeutic Limited, priority 2003, dated 2014).
In the oligonucleotide strings, read from the 5' end, every base follows the letter of its sugar. An asterisk marks phosphorothioate; unmarked linkages are phosphodiester. Other units and linkages are bracketed, terminal groups are in braces. A string of capitals states the bases alone. e = 2'-O-(2-methoxyethyl) (MOE); [5mC] = 5-methylcytosine; d = 2'-deoxy (DNA)

Tested on: mouse growth hormone receptor mRNA
Experiment: Inhibition of mouse growth hormone receptor mRNA levels in b.END cells, quantitative real-time PCR
Format: cell-based
Set-up: % INHIB: concentration or dose not given beside the values
Details: mouse growth hormone receptor mRNA, b.END cells, averages from three experiments
Method: (§1) The mouse brain endothelial cell line b.END was obtained from Dr. Werner Risau at the Max Plank Instititute (Bad Nauheim, Germany). b.END cells were routinely cultured in DMEM, high glucose (Gibco/Life Technologies, Gaithersburg, Md.) supplemented with 10% fetal calf serum (Gibco/Life Technologies, Gaithersburg, Md.). Cells were routinely passaged by trypsinization and dilution when they reached 90% confluence. Cells were seeded into 96-well plates (Falcon-Primaria #3872) at a density of 3000 cells/well for use in RT-PCR analysis.
(§2) When cells reached 65-75% confluency, they were treated with oligonucleotide. For cells grown in 96-well plates, wells were washed once with 100 μL OPTI-MEM™-1 reduced-serum medium (Invitrogen Corporation, Carlsbad, Calif.) and then treated with 130 μL of OPTI-MEM™-1 containing 3.75 μg/mL LIPOFECTIN™ (Invitrogen Corporation, Carlsbad, Calif.) and the desired concentration of oligonucleotide. Cells are treated and data are obtained in triplicate. After 4-7 hours of treatment at 37° C., the medium was replaced with fresh medium. Cells were harvested 16-24 hours after oligonucleotide treatment.
(§3) Total RNA was isolated using an RNEASY 96™ kit and buffers purchased from Qiagen Inc. (Valencia, Calif.) following the manufacturer's recommended procedures. Briefly, for cells grown on 96-well plates, growth medium was removed from the cells and each well was washed with 200 μL cold PBS. 150 μL Buffer RLT was added to each well and the plate vigorously agitated for 20 seconds. 150 μL of 70% ethanol was then added to each well and the contents mixed by pipetting three times up and down. The samples were then transferred to the RNEASY 96™ well plate attached to a QIAVAC™ manifold fitted with a waste collection tray and attached to a vacuum source. Vacuum was applied for 1 minute. 500 μL of Buffer RW1 was added to each well of the RNEASY 96™ plate and incubated for 15 minutes and the vacuum was again applied for 1 minute. An additional 500 μL of Buffer RW1 was added to each well of the RNEASY 96™ plate and the vacuum was applied for 2 minutes. 1 mL of Buffer RPE was then added to each well of the RNEASY 96™ plate and the vacuum applied for a period of 90 seconds. The Buffer RPE wash was then repeated and the vacuum was applied for an additional 3 minutes. The plate was then removed from the QIAVAC™ manifold and blotted dry on paper towels. The plate was then re-attached to the QIAVAC™ manifold fitted with a collection tube rack containing 1.2 mL collection tubes. RNA was then eluted by pipetting 140 μL of RNAse free water into each well, incubating 1 minute, and then applying the vacuum for 3 minutes.
(§4) Quantitation of growth hormone receptor mRNA levels was accomplished by real-time quantitative PCR using the ABI PRISM™ 7600, 7700, or 7900 Sequence Detection System (PE-Applied Biosystems, Foster City, Calif.) according to manufacturer's instructions. This is a closed-tube, non-gel-based, fluorescence detection system which allows high-throughput quantitation of polymerase chain reaction (PCR) products in real-time. As opposed to standard PCR in which amplification products are quantitated after the PCR is completed, products in real-time quantitative PCR are quantitated as they accumulate. This is accomplished by including in the PCR reaction an oligonucleotide probe that anneals specifically between the forward and reverse PCR primers, and contains two fluorescent dyes. A reporter dye (e.g., FAM or JOE, obtained from either PE-Applied Biosystems, Foster City, Calif., Operon Technologies Inc., Alameda, Calif. or Integrated DNA Technologies Inc., Coralville, Iowa) is attached to the 5′ end of the probe and a quencher dye (e.g., TAMRA, obtained from either PE-Applied Biosystems, Foster City, Calif., Operon Technologies Inc., Alameda, Calif. or Integrated DNA Technologies Inc., Coralville, Iowa) is attached to the 3′ end of the probe. […]

Substance	% INHIB
227443 (antisense eT*eG*e[5mC]*eT*eT*dG*dG*d[5mC]*dA*dG*d[5mC]*dT*d[5mC]*dG*dT*eG*eG*eG*eT*eT) [compound 227443]	0%
227444 (antisense eA*eT*eG*eG*e[5mC]*dT*dG*d[5mC]*dG*d[5mC]*d[5mC]*dT*dG*d[5mC]*dT*eT*eG*eG*e[5mC]*eA) [compound 227444]	53%
227445 (antisense eT*eA*e[5mC]*e[5mC]*eT*dG*dA*dG*dA*d[5mC]*d[5mC]*dT*d[5mC]*dG*dG*eA*eG*eT*eT*eT) [compound 227445]	69%
227446 (antisense eA*e[5mC]*eA*eA*eA*dG*dA*dT*d[5mC]*d[5mC]*dA*dT*dA*d[5mC]*d[5mC]*eT*eG*eA*eG*eA) [compound 227446]	87%
227447 (antisense eG*e[5mC]*eT*eG*eG*dT*dG*dT*dA*dG*d[5mC]*d[5mC]*dT*d[5mC]*dA*e[5mC]*eT*eT*e[5mC]*e[5mC]) [compound 227447]	77%
227448 (antisense eT*eT*eT*eG*e[5mC]*d[5mC]*dA*dA*dG*dA*dG*dT*dA*dG*d[5mC]*eT*eG*eG*eT*eG) [compound 227448]	60%
227449 (antisense eA*e[5mC]*eG*eA*e[5mC]*dA*d[5mC]*dT*dT*dG*dG*dT*dG*dA*dA*eT*e[5mC]*eG*eA*eG) [compound 227449]	69%
227450 (antisense eT*eG*eG*e[5mC]*eT*dT*dT*d[5mC]*d[5mC]*d[5mC]*dT*dT*dT*dT*dA*eG*e[5mC]*eA*eT*eA) [compound 227450]	71%
227451 (antisense eA*eT*eG*eA*eG*d[5mC]*dA*dA*dT*dT*d[5mC]*dT*dT*dG*d[5mC]*eA*eG*e[5mC]*eT*eT) [compound 227451]	49%
227454 (antisense eA*eG*eT*eT*eG*dA*dA*dG*dT*dA*dA*d[5mC]*dA*dG*d[5mC]*eT*eG*eT*eT*eT) [compound 227454]	69%
227455 (antisense eA*eG*eT*eA*eG*dG*dG*dT*dA*dT*d[5mC]*d[5mC]*dA*dA*dA*eT*eG*eG*eA*eG) [compound 227455]	43%
227456 (antisense eG*eT*e[5mC]*e[5mC]*eA*dG*dT*dT*dG*dA*dG*dG*d[5mC]*d[5mC]*dA*eA*eT*eG*eG*eG) [compound 227456]	97%
227457 (antisense eG*eA*eA*eT*eT*dA*dT*d[5mC]*d[5mC]*dA*dT*d[5mC]*d[5mC]*d[5mC]*dT*eT*e[5mC]*eA*eG*eA) [compound 227457]	67%

Tested on: human growth hormone receptor mRNA
Experiment: Inhibition of human growth hormone receptor mRNA levels in MCF7 cells, quantitative real-time PCR
Format: cell-based
Set-up: concentration or dose not given beside the values
Details: averages from three experiments
Method: as §1, with “human breast carcinoma” for “mouse brain endothelial”, “MCF-7” for “b.END”, “from” for “from Dr. Werner Risau at”, “American Type Culture Collection (Manassas, Va.). MCF-7” for “Max Plank Instititute (Bad Nauheim, Germany). b.END”, “DMEM low” for “DMEM, high”, “7000” for “3000”
as §2, §3
as §4, with “probe. When the probe and dyes are intact, reporter dye emission is quenched by the proximity of the 3′ quencher dye.” for “probe.”

Substance	% INHIB
272343 (antisense eA*eA*eT*eG*e[5mC]*dT*d[5mC]*dT*d[5mC]*dA*dA*dG*dA*dA*dT*eG*eA*eT*eG*eT) [compound 272343]	48%
272344 (antisense eA*e[5mC]*eA*e[5mC]*eT*d[5mC]*dA*dA*dT*dT*d[5mC]*dT*dA*dG*d[5mC]*eT*eT*eT*eT*e[5mC]) [compound 272344]	60%
272345 (antisense e[5mC]*eA*eT*e[5mC]*eT*dA*dT*dT*dA*d[5mC]*dA*dA*dA*dT*dA*eA*e[5mC]*eA*eT*eG) [compound 272345]	24%
272346 (antisense e[5mC]*eT*e[5mC]*eT*eT*dG*dG*dA*dG*dA*dA*dA*dA*d[5mC]*d[5mC]*eA*eT*eA*eG*e[5mC]) [compound 272346]	67%
272347 (antisense eT*e[5mC]*eT*eA*e[5mC]*dA*d[5mC]*dT*dG*dA*dT*dG*dA*dT*dA*e[5mC]*eT*eT*eT*eA) [compound 272347]	62%
272348 (antisense e[5mC]*eA*e[5mC]*eA*eG*d[5mC]*dT*dT*dT*dG*dA*dA*dT*dT*dG*eA*eA*eT*eT*eA) [compound 272348]	57%
272349 (antisense eA*eG*eT*e[5mC]*eT*dT*d[5mC]*d[5mC]*dA*dA*dA*d[5mC]*dA*d[5mC]*dA*e[5mC]*eA*eG*e[5mC]*eT) [compound 272349]	68%
272350 (antisense eA*eG*eG*e[5mC]*eT*dG*dT*dT*dG*dT*dG*dA*dA*dA*dT*eA*eG*eT*eA*eA) [compound 272350]	67%
272351 (antisense eA*eT*eA*eG*eA*dA*dA*dT*dG*dT*dT*dG*dT*d[5mC]*dA*eG*eG*e[5mC]*eT*eG) [compound 272351]	57%
272352 (antisense e[5mC]*e[5mC]*eA*eA*eA*dA*dT*dG*dA*d[5mC]*dA*dT*dT*d[5mC]*dT*eG*eA*eG*eA*e[5mC]) [compound 272352]	77%
272353 (antisense eA*eT*eA*eA*eT*dG*dG*d[5mC]*dT*dT*dA*dT*dG*dT*dG*eG*e[5mC]*e[5mC]*eA*e[5mC]) [compound 272353]	72%
272354 (antisense eA*eG*eT*eT*eA*dT*dG*dT*dG*dA*d[5mC]*d[5mC]*d[5mC]*dT*dG*eA*eT*eT*eG*eA) [compound 272354]	65%
272355 (antisense eT*eT*eG*eA*eG*dT*dG*dT*dT*d[5mC]*d[5mC]*dT*dA*dA*dA*eA*eT*eG*eA*eA) [compound 272355]	24%
272356 (antisense eA*eT*eG*eG*eA*dG*dG*d[5mC]*dT*dG*dG*dA*dG*dG*dT*eT*e[5mC]*eA*eA*eA) [compound 272356]	63%
272357 (antisense eT*eA*eG*eG*eG*dT*d[5mC]*d[5mC]*dA*dT*d[5mC]*dT*dT*dT*d[5mC]*eA*eA*eG*eA*e[5mC]) [compound 272357]	62%
272358 (antisense eT*e[5mC]*eT*e[5mC]*e[5mC]*dA*dG*dA*dT*dA*dG*dA*dA*dT*d[5mC]*eT*eA*eA*eA*e[5mC]) [compound 272358]	53%
272359 (antisense eT*e[5mC]*e[5mC]*eA*eA*dA*dT*dA*dT*dT*d[5mC]*dT*dG*dG*dT*eA*e[5mC]*eT*eT*eT) [compound 272359]	72%
272360 (antisense eT*eA*eT*eT*eA*dG*dT*dT*dA*d[5mC]*d[5mC]*dT*dT*dG*dA*eG*eG*eA*eG*eA) [compound 272360]	0%
272361 (antisense eA*eT*eT*eT*eT*d[5mC]*d[5mC]*dT*dT*d[5mC]*d[5mC]*dT*dA*dG*dA*eA*eA*eA*eT*eA) [compound 272361]	10%
